Activity calls are given as the source filed them. How the calls were made is not given here.
Test system: GENE-TOX genotoxicity assays, various organisms and cells
Experiment: GENE-TOX mutagenicity studies
Conditions: for call: Assay Type: In vivo carcinogenicity studies
[1] = Species/Cell Type: Drosophila melanogaster, Assay Type: Sex-linked recessive lethal gene mutation, Assay Code: SRL+, Evaluation Type: Evaluation A (Pre-1980)
[2] = Species/Cell Type: Mouse (BALB/c-3T3) cells, Assay Type: Cell transformation, Assay Code: CTB-, Evaluation Type: Evaluation A (Pre-1980)
[3] = Species/Cell Type: Saccharomyces cerevisiae, Assay Type: Mitotic recombination or gene conversion, Assay Code: YEC+/-*, Activation: With metabolic activation, Evaluation Type: Evaluation A (Pre-1980)
[4] = Species/Cell Type: Salmonella typhimurium (one or more of the five standard strains: TA98, TA100, TA1535, TA1537, and TA1538), Assay Type: Histidine reverse gene mutation, Ames assay, Assay Code: SAL-, Evaluation Type: Evaluation A (Pre-1980)
[5] = Species/Cell Type: Salmonella typhimurium (one or more of the five standard strains: TA98, TA100, TA1535, TA1537, and TA1538), Assay Type: Histidine reverse gene mutation, Ames assay, Assay Code: SAL+, Evaluation Type: Evaluation A (Pre-1980)
[6] = Species/Cell Type: Nonhuman, Assay Type: Sister-chromatid exchange (SCE) in vitro, Assay Code: SC2-, Evaluation Type: Evaluation A (Pre-1980)
[7] = Species/Cell Type: Nonhuman, Assay Type: Sister-chromatid exchange (SCE) in vitro, Assay Code: SC2T, Evaluation Type: Evaluation B (Post-1980)
[8] = Species/Cell Type: Salmonella typhimurium (one or more of the five standard strains: TA98, TA100, TA1535, TA1537, and TA1538), Assay Type: Histidine reverse gene mutation, Ames assay, Assay Code: SALT, Evaluation Type: Evaluation A (Pre-1980)

SMILES: CNNCc1ccc(C(=O)NC(C)C)cc1
- mutagenic call (Species/Cell Type: Drosophila melanogaster, Assay Type: Aneuploidy, partial sex chromosome loss, chromosome aberrations, Assay Code: DAP-M, Evaluation Type: Evaluation A (Pre-1980)): inactive; negative
- mutagenic call (Species/Cell Type: Drosophila melanogaster, Assay Type: Aneuploidy, whole sex chromosome loss, chromosome aberrations, Assay Code: DAC+M, Evaluation Type: Evaluation A (Pre-1980)): active; positive
- mutagenic call [1]: active; positive
- mutagenic call (Species/Cell Type: Drosophila melanogaster, Sex: Male, Assay Type: Heritable translocation test, chromosome aberrations, Assay Code: DHT-, Evaluation Type: Evaluation A (Pre-1980)): inactive; negative
- mutagenic call (Species/Cell Type: Escherichia coli polA (W3119 vs P3478), Assay Type: Rec-assay, DNA effects (bacterial DNA repair), Assay Code: RE1+, Evaluation Type: Evaluation A (Pre-1980)): active; positive
- mutagenic call (Species/Cell Type: Fischer rat embryo (RLV/1706) cells, Assay Type: Cell transformation, viral enhanced, Assay Code: CTR+, Evaluation Type: Evaluation A (Pre-1980)): active; positive
- mutagenic call (Species/Cell Type: Human lymphocytes, Assay Type: Sister-chromatid exchange (SCE) in vitro, Assay Code: SCL+, Evaluation Type: Evaluation B (Post-1980)): active; positive
- mutagenic call (Species/Cell Type: Human, Assay Type: Sister-chromatid exchange (SCE) in vitro, Assay Code: SC1+, Evaluation Type: Evaluation B (Post-1980)): active; positive
- mutagenic call (Species/Cell Type: Mammalian polychromatic erythrocytes, Assay Type: Micronucleus test, chromosome aberrations, Assay Code: MNT+, Evaluation Type: Evaluation A (Pre-1980)): active; positive
- mutagenic call [2]: inactive; negative
- mutagenic call (Species/Cell Type: Mouse lymphoma (L5178Y) cells, Assay Type: Forward gene mutation at the thymidine kinase (TK) locus, chromosome aberrations, Assay Code: L51+, Evaluation Type: Evaluation A (Pre-1980)): active; positive
- mutagenic call (Species/Cell Type: Mouse, Sex: Female, Assay Type: Spot test, gene mutation, Assay Code: MST+, Evaluation Type: Evaluation A (Pre-1980)): active; positive
- mutagenic call (Species/Cell Type: Mouse, Sex: Male, Assay Type: Heritable translocation test, chromosome aberrations, Assay Code: HTT+, Evaluation Type: Evaluation A (Pre-1980)): active; positive
- mutagenic call (Species/Cell Type: Mouse, Sex: Male, Assay Type: Specific locus test, gene mutation, Assay Code: SLT+, Evaluation Type: Evaluation A (Pre-1980)): active; positive
- mutagenic call (Species/Cell Type: Mouse, Sex: Male, Assay Type: Sperm morphology, Assay Code: SPI+, Evaluation Type: Evaluation A (Pre-1980)): active; positive
- mutagenic call (Species/Cell Type: Neurospora crassa, Assay Type: Forward gene mutation, Assay Code: NEF+, Evaluation Type: Evaluation A (Pre-1980)): active; positive
- call (Species/Cell Type: Nonhuman, Assay Code: CCG+, Evaluation Type: Evaluation A (Pre-1980)): active; positive
- mutagenic call (Species/Cell Type: Nonhuman, Assay Type: Sister-chromatid exchange (SCE) in vivo, Assay Code: SC3+D, Dose Response: With dose response, Evaluation Type: Evaluation A (Pre-1980)): active; positive
- mutagenic call (Species/Cell Type: Rabbit, Sex: Male, Assay Type: Sperm morphology, Assay Code: SPR+, Evaluation Type: Evaluation A (Pre-1980)): active; positive
- mutagenic call (Species/Cell Type: Rodents, Sex: Male, Assay Type: Dominant lethal test, Assay Code: DLT+, Evaluation Type: Evaluation A (Pre-1980)): active; positive
- mutagenic call [3]: inactive; positive without activation, negative with activation
- mutagenic call (Species/Cell Type: Saccharomyces cerevisiae, Assay Type: Mitotic recombination or gene conversion, Assay Code: YEH+/-*, Activation: With metabolic activation, Evaluation Type: Evaluation A (Pre-1980)): inactive; positive without activation, negative with activation
- mutagenic call (Species/Cell Type: Saccharomyces cerevisiae, Assay Type: Reverse gene mutation, Assay Code: YER+/-*, Activation: With metabolic activation, Evaluation Type: Evaluation A (Pre-1980)): inactive; positive without activation, negative with activation
- mutagenic call [4]: inactive; negative
- mutagenic call (Species/Cell Type: Salmonella typhimurium, Assay Type: Forward and reverse gene mutation, host-mediated assay, Assay Code: HMA+, Evaluation Type: Evaluation A (Pre-1980)): active; positive
- mutagenic call (Species/Cell Type: Syrian hamster embryo (SHE) cells, Assay Type: Cell transformation, clonal assay, Assay Code: CTC+, Evaluation Type: Evaluation A (Pre-1980)): active; positive

SMILES: O=[N+]([O-])c1ccc(N2CCN(CCO)CC2)c2c1no[n+]2[O-]
- mutagenic call [5]: active; positive

SMILES: CCN(CC)CCOc1ccc2c(c1)C(=O)c1cc(OCCN(CC)CC)ccc1-2
- mutagenic call (Species/Cell Type: Mouse (C3H/10T1/2) cells, Assay Type: Cell transformation, Assay Code: CTH-, Evaluation Type: Evaluation A (Pre-1980)): inactive; negative
- mutagenic call [6]: inactive; negative
- mutagenic call [7]: no conclusion
- mutagenic call [5]: active; positive

SMILES: c1ccc2c(c1)ccc1ccccc12
- mutagenic call (Species/Cell Type: Allium cepa, Assay Type: Chromosome aberrations, Assay Code: ALC+, Evaluation Type: Evaluation A (Pre-1980)): active; positive
- mutagenic call (Species/Cell Type: Escherichia coli polA (W3110 vs P3478), Assay Type: Rec-assay, DNA effects (bacterial DNA repair), Assay Code: RE2-, Evaluation Type: Evaluation A (Pre-1980)): inactive; negative
- mutagenic call (Species/Cell Type: Escherichia coli polA (W3119 vs P3478), Assay Type: Rec-assay, DNA effects (bacterial DNA repair), Assay Code: RE1T, Evaluation Type: Evaluation A (Pre-1980)): no conclusion
- mutagenic call (Species/Cell Type: Fischer rat embryo (RLV/1706) cells, Assay Type: Cell transformation, viral enhanced, Assay Code: CTRT, Evaluation Type: Evaluation A (Pre-1980)): no conclusion
- mutagenic call (Species/Cell Type: Human diploid fibroblasts, Assay Type: Unscheduled DNA synthesis (UDS) in vitro, DNA effects, Assay Code: UDH-, Evaluation Type: Evaluation A (Pre-1980)): inactive; negative
- mutagenic call (Species/Cell Type: Mammalian polychromatic erythrocytes, Assay Type: Micronucleus test, chromosome aberrations, Assay Code: MNTT, Evaluation Type: Evaluation A (Pre-1980)): no conclusion
- mutagenic call [2]: inactive; negative
- mutagenic call (Species/Cell Type: Mouse embryo (AKR/ME) cells, Assay Type: Cell transformation, Assay Code: CTK+, Evaluation Type: Evaluation A (Pre-1980)): active; positive
- mutagenic call (Species/Cell Type: Mouse prostate cells, Assay Type: Cell transformation, Assay Code: CTM-, Evaluation Type: Evaluation A (Pre-1980)): inactive; negative
- mutagenic call (Species/Cell Type: Nonhuman, Assay Type: Chromosome aberrations in vitro, Assay Code: CY&-, Evaluation Type: Evaluation A (Pre-1980)): inactive; negative
- call (Species/Cell Type: Nonhuman, Assay Code: CCGT, Evaluation Type: Evaluation A (Pre-1980)): no conclusion
- mutagenic call [6]: inactive; negative
- mutagenic call (Species/Cell Type: Nonhuman, Assay Type: Sister-chromatid exchange (SCE) in vivo, Assay Code: SC3+, Evaluation Type: Evaluation B (Post-1980)): active; positive
- mutagenic call (Species/Cell Type: Nonhuman, Assay Type: Sister-chromatid exchange (SCE) in vivo, Assay Code: SC3T, Evaluation Type: Evaluation A (Pre-1980)): no conclusion
- mutagenic call (Species/Cell Type: Saccharomyces cerevisiae, Assay Type: Mitotic recombination or gene conversion, Assay Code: YEH-, Evaluation Type: Evaluation A (Pre-1980)): inactive; negative
- mutagenic call [4]: inactive; negative
- mutagenic call (Species/Cell Type: Salmonella typhimurium, Assay Type: Forward and reverse gene mutation, host-mediated assay, Assay Code: HMA-, Evaluation Type: Evaluation A (Pre-1980)): inactive; negative
- mutagenic call (Species/Cell Type: Syrian hamster embryo (SHE) cells, Assay Type: Cell transformation, clonal assay, Assay Code: CTC-, Evaluation Type: Evaluation A (Pre-1980)): inactive; negative

SMILES: COc1ccc(Cl)cc1C(=O)NCCc1ccc(S(=O)(=O)NC(=O)NC2CCCCC2)cc1
- mutagenic call (Species/Cell Type: Mammalian polychromatic erythrocytes, Assay Type: Micronucleus test, chromosome aberrations, Assay Code: MNTT, Evaluation Type: Evaluation B (Post-1980)): no conclusion
- mutagenic call (Species/Cell Type: Nonhuman, Assay Type: Sister-chromatid exchange (SCE) in vivo, Assay Code: SC3T, Evaluation Type: Evaluation B (Post-1980)): no conclusion

SMILES: CCCCCCCCCCCCCCCCCC(=O)O
- mutagenic call (Species/Cell Type: Escherichia coli polA (W3119 vs P3478), Assay Type: Rec-assay, DNA effects (bacterial DNA repair), Assay Code: RE1-, Evaluation Type: Evaluation A (Pre-1980)): inactive; negative

SMILES: O=[N+]([O-])c1nccn1CC(O)CF (centres undefined)
- mutagenic call [5]: active; positive

SMILES: O=S1(=O)OC2(c3ccccc31)c1cc(Br)c(O)c(Br)c1Oc1c2cc(Br)c(O)c1Br
- mutagenic call [5]: active; positive

SMILES: CS(=O)(=O)c1ccc([C@H](O)[C@H](CO)NC(=O)C(Cl)Cl)cc1
- mutagenic call [8]: no conclusion

SMILES: CC[C@@]1(O)C[C@H](O[C@H]2C[C@H](NC)[C@H](O)[C@H](C)O2)c2c(cc3c(c2O)C(=O)c2c(O)cccc2C3=O)[C@H]1C(=O)OC
- mutagenic call [8]: no conclusion

SMILES: CCOC(=O)N1CC1
- mutagenic call (Species/Cell Type: Schizosaccharomyces pombe, Assay Type: Reverse gene mutation, Assay Code: YEZ+, Evaluation Type: Evaluation A (Pre-1980)): active; positive

SMILES: O=C(Cl)c1ccccc1
- mutagenic call (Species/Cell Type: Bacillus subtilis (H17 vs M45), Assay Type: Rec-assay, spot test, DNA effects (bacterial DNA repair), Assay Code: REWT, Evaluation Type: Evaluation A (Pre-1980)): no conclusion

SMILES: O=C1c2ccccc2C(=O)c2c(NCCNCCO)ccc(O)c21
- mutagenic call (Species/Cell Type: Nonhuman, Assay Type: Sister-chromatid exchange (SCE) in vitro, Assay Code: SC2+, Evaluation Type: Evaluation B (Post-1980)): active; positive

SMILES: CN(C)N=Nc1ccc(O)cc1
- mutagenic call (Species/Cell Type: Drosophila melanogaster, Assay Type: Sex-linked recessive lethal gene mutation, Assay Code: SRLT, Evaluation Type: Evaluation A (Pre-1980)): no conclusion
- mutagenic call [3]: inactive; positive without activation, negative with activation

SMILES: c1cncc(C2=NCCC2)c1
- mutagenic call [7]: no conclusion

SMILES: O=NN1CCC(Cl)CC1
- mutagenic call [1]: active; positive
- mutagenic call (Species/Cell Type: Salmonella typhimurium (one or more of the five standard strains: TA98, TA100, TA1535, TA1537, and TA1538), Assay Type: Histidine reverse gene mutation, Ames assay, Assay Code: SAL+*, Activation: With metabolic activation, Evaluation Type: Evaluation A (Pre-1980)): active; positive

From PubChem BioAssay AID1259408 (Genetic Toxicology Data Bank (GENE-TOX), 2018)
